For assay [1] the following is noted: pre-diabetic patients, DPP; cited from earlier work.
The nature of assay [2]: Predicted and actual Rd before and after treatment with the insulin sensitizer muraglitozar. The class given is in vivo, human. As to conditions: 16 subjects, pre- vs post-treatment, plasma biomarkers 1-25. The procedure:
C-Mur1, baseline prior to muraglitazar treatment; D-Mur2, following treatment with muraglitazar, a peroxisome proliferator-activated receptor agonist and an insulin sensitizer drug. […] Biomarkers 1-25 listed in Table 4 were measured in plasma samples collected from 16 subjects that were taking the insulin sensitizer muraglitozar. The samples were collected pre-(C-Mur—1) and post-treatment (D-Mur—2) with muraglitozar.

Each structure is given as a SMILES string.

Take `CN(C)C(=N)N=C(N)N` [metformin]: the “reduction of the rate of progression to diabetes” value in assay [1] is given as 38%. `COc1ccc(OC(=O)N(CC(=O)O)Cc2ccc(OCCc3nc(-c4ccccc4)oc3C)cc2)cc1` [muraglitozar]: the “change in predicted Rd with treatment, in agreement with actual Rd by HI clamp” value in assay [2] is listed as “increased”.

(Values after US20120122981A1, “Biomarkers Related to Insulin Resistance and Methods using the Same” (priority 2009, published 2012).)
